Assay results: patent US10130631B2, “CML therapeutic agents with reduced drug-resistance and side-effect comprising 1,6-disubstituted indole compounds” (KOREA INSTITUTE OF SCIENCE AND TECHNOLOGY, priority 2016, dated 2018)

How the values were obtained:
Type in all cases: cell-based
[1] = system: VEGFR2 Ba/F3; experiment: Proliferation inhibitory activity, VEGFR2 Ba/F3; settings: for GI50: Mus musculus, BaF3, VEGFR2 Ba/F3 cell line; for inhibitory activity against VEGFR2 kinase (in words): summary of Table 1
Description: (§1) The GI50 value was calculated by measuring the inhibitory effect on the proliferation of the compounds of the present invention in parental Ba/F3, wt-Bcr-Abl Ba/F3, T315I-Bcr-Abl Ba/F3 and VEGFR2 Ba/F3 cell lines.

[2] = system: T315I-Bcr-Abl Ba/F3; experiment: Proliferation inhibitory activity, T315I-Bcr-Abl Ba/F3; settings: for GI50: Mus musculus, BaF3, T315I-Bcr-Abl Ba/F3 cell line; for inhibitory activity against T315I-Bcr-Abl (in words): summary of Table 1
Description: as §1

[3] = system: Parental Ba/F3; experiment: Proliferation inhibitory activity, parental Ba/F3; settings: Mus musculus, BaF3; parental Ba/F3 cell line
Description: as §1

[4] = system: wt-Bcr-Abl Ba/F3; experiment: Proliferation inhibitory activity, wt-Bcr-Abl Ba/F3; settings: for GI50: Mus musculus, BaF3, wt-Bcr-Abl Ba/F3 cell line; for inhibitory activity against wt-Bcr-Abl (in words): summary of Table 1
Description: as §1

SMILES	GI50 [1] [nM]	GI50 [2] [nM]	GI50 [4] [nM]	inhibitory activity against VEGFR2 kinase (in words) [1]	inhibitory activity against T315I-Bcr-Abl (in words) [2]	GI50 [3] [nM]	inhibitory activity against wt-Bcr-Abl (in words) [4]
Cc1cn(-c2cc(C(=O)Nc3cccc(-c4ccc5ccn(-c6cc(N)ncn6)c5c4)c3)cc(C(F)(F)F)c2)cn1 [Compound No. 7, N-(3-(1-(6-aminopyrimidine-4-yl)-1H-indole-6-yl)phenyl)-3-(4-methyl-1H-imidazole-1-yl)-5-(trifluoromethyl)benzamide]	> 3000	300 to 3000	> 3000	–	–	> 3000	–
Nc1cc(-n2ccc3ccc(-c4cccc(NC(=O)c5cc(N6CCOCC6)cc(C(F)(F)F)c5)c4)cc32)ncn1 [Compound No. 8, N-(3-(1-(6-aminopyrimidine-4-yl)-1H-indole-6-yl)phenyl)-3-morpholino-5-(trifluoromethyl)benzamide]	> 3000	> 3000	> 3000	–	–	> 3000	–
COc1ccccc1NC(=O)Nc1ccc(C)c(-c2ccc3ccn(-c4cc(N)ncn4)c3c2)c1 [Compound No. 9, 1-(3-(1-(6-aminopyrimidine-4-yl)-1H-indole-6-yl)-4-methylphenyl)-3-(2-methoxyphenyl) urea]	> 3000	> 3000	> 3000	–	–	> 3000	–
COc1ccccc1NC(=O)Nc1cccc(-c2ccc3ccn(-c4ncnc5[nH]ccc45)c3c2)c1 [Compound No. 10, 1-(3-(1-(7H-pyrrolo[2,3-d]pyrimidine-4-yl)-1H-indole-6-yl)phenyl)-3-(2-methoxyphenyl)urea]	> 3000	> 3000	> 3000	–	–	> 3000	–
Cc1cn(-c2cc(C(=O)Nc3ccc(C)c(-c4ccc5ccn(-c6ncnc7[nH]ccc67)c5c4)c3)cc(C(F)(F)F)c2)cn1 [Compound No. 11]	> 3000	< 300	< 300	does not exhibit any inhibitory activity	strong inhibitory activity	300 to 3000	have a wt-Bcr-Abl inhibitory activity
Cc1ccc(NC(=O)c2cc(N3CCC(O)CC3)cc(C(F)(F)F)c2)cc1-c1ccc2ccn(-c3ncnc4[nH]ccc34)c2c1 [Compound No. 12, N-(3-(1-(7H-pyrrolo[2,3-d]pyrimidine-4-yl)-1H-indole-6-yl)-4-methylphenyl)-3-(4-hydroxypiperidine-1-yl)-5-(trifluoromethyl)benzamide]	> 3000	300 to 3000	> 3000	–	–	> 3000	–
Cc1ccc(NC(=O)c2cc(N3CCOCC3)cc(C(F)(F)F)c2)cc1-c1ccc2ccn(-c3ncnc4[nH]ccc34)c2c1 [Compound No. 13, N-(3-(1-(7H-pyrrolo[2,3-d]pyrimidine-4-yl)-1H-indole-6-yl)-4-methylphenyl)-3-morpholino-5-(trifluoromethyl)benzamide]	> 3000	300 to 3000	300 to 3000	–	–	> 3000	–

Continued, in another order:

GI50 [1] [nM]	GI50 [2] [nM]	GI50 [4] [nM]	SMILES	inhibitory activity against VEGFR2 kinase (in words) [1]	inhibitory activity against T315I-Bcr-Abl (in words) [2]	GI50 [3] [nM]	inhibitory activity against wt-Bcr-Abl (in words) [4]
> 3000	< 300	300 to 3000	Cc1cn(-c2cc(C(=O)Nc3ccc(C)c(-c4ccc5ccn(-c6cc(N)ncn6)c5c4)c3)cc(C(F)(F)F)c2)cn1 [Compound No. 1]	does not exhibit any inhibitory activity	strong inhibitory activity	300 to 3000	have a wt-Bcr-Abl inhibitory activity
> 3000	< 300	> 3000	Cc1ccc(NC(=O)c2cc(N3CCC(O)CC3)cc(C(F)(F)F)c2)cc1-c1ccc2ccn(-c3cc(N)ncn3)c2c1 [Compound No. 2]	–	–	> 3000	–
> 3000	< 300	> 3000	Cc1ccc(NC(=O)c2cc(N3CCOCC3)cc(C(F)(F)F)c2)cc1-c1ccc2ccn(-c3cc(N)ncn3)c2c1 [Compound No. 3]	–	–	> 3000	–
> 3000	< 300	300 to 3000	Cc1ccc(NC(=O)c2ccc(N3CCN(C)CC3)c(C(F)(F)F)c2)cc1-c1ccc2ccn(-c3cc(N)ncn3)c2c1 [Compound No. 5]	does not exhibit any inhibitory activity	strong inhibitory activity	300 to 3000	have a wt-Bcr-Abl inhibitory activity
300 to 3000	< 300	300 to 3000	Cc1ccc(NC(=O)c2cc(N3CCN(C)CC3)cc(C(F)(F)F)c2)cc1-c1ccc2ccn(-c3ncnc4[nH]ccc34)c2c1 [Compound No. 14, N-(3-(1-(7H-pyrrolo[2,3-d]pyrimidine-4-yl)-1H-indole-6-yl)-4-methylphenyl)-3-(4-methylpiperazine-1-yl)-5-(trifluoromethyl)benzamide]	–	–	300 to 3000	–
300 to 3000	< 300	300 to 3000	Cc1ccc(NC(=O)c2ccc(N3CCN(C)CC3)c(C(F)(F)F)c2)cc1-c1ccc2ccn(-c3ncnc4[nH]ccc34)c2c1 [Compound No. 15, N-(3-(1-(7H-pyrrolo[2,3-d]pyrimidine-4-yl)-1H-indole-6-yl)-4-methylphenyl)-4-(4-methylpiperazine-1-yl)-5-(trifluoromethyl)benzamide]	–	–	300 to 3000	–
300 to 3000	< 300	< 300	Cc1ccc(NC(=O)c2ccc(CN3CCN(C)CC3)c(C(F)(F)F)c2)cc1-c1ccc2ccn(-c3ncnc4[nH]ccc34)c2c1 [Compound No. 16, N-(3-(1-(7H-pyrrolo[2,3-d]pyrimidine-4-yl)-1H-indole-6-yl)-4-methylphenyl)-4-((4-methylpiperazine-1-yl)methyl)-3-(trifluoromethyl)benzamide]	–	–	300 to 3000	–
